Source: patent US6875578B2, “System for cell-based screening” (priority 1997, dated 2005)
Entries after “also recorded” stand apart in the source; their conditions may differ.

How the values were obtained:
[1] = tested on: MCF-7 cells; assay: Apoptosis mitochondrial mass/potential, MCF-7 cells; type: cell-based; details: 30 hours
Method: (§1) Cells were plated into 96-well plates at densities of 3×10^3 to 1×10^4 cells/well. The following day apoptotic inducers were added at the indicated concentrations and cells were incubated for the indicated time periods (usually 16-30 hours). Cells were stained with 5 μg/ml Hoechst (Molecular Probes, Inc.) and 750 nM MITOTRACKER™ Red (CMXRos, Molecular Probes, Inc.) in fresh medium and incubated for 30 minutes at 37° C. Cells were washed in HBSS and fixed with 3.7% formaldehyde in HBSS at room temperature. Plates were washed with HBSS and permeabilized with 0.5% v/v TRITON™ X-100 in HBSS at room temperature. Cells were washed 2× with HBSS at room temperature and the plate was sealed. For dual labeling of mitochondria, cells were treated with 200 nM MITOTRACKER™ Green and 200 nM MITOTRACKER™ Red for 0.5 hours before fixation.
(§2) The mitochondrial membrane potential is measured by labeling mitochondria with both MITOTRACKER™ Green FM and MITOTRACKER™ Red (Molecular Probes, mc). MITOTRACKER™ Red labeling is proportional to both mass and membrane potential. MITOTRACKER™ Green FM labeling is proportional to mass. The ratio of MITOTRACKER™ Red signal to the MITOTRACKER™ Green FM signal provides a measure of mitochondrial membrane potential (Poot and Pierce, 1999). This ratio normalizes the […]. […]

[2] = tested on: L-929 cells; assay: High-content screen of paclitaxel-induced apoptosis, L-929 cells; type: cell-based, mouse
Method: The cells chosen for this study were mouse connective tissue fibroblasts (L-929; ATCC CCL-1) and a highly invasive glioblastoma cell line (SNB-19; ATCC CRL-2219) (Welch et al., In Vitro Cell. Dev. Bid. 31:610, 1995). The day before treatment with an apoptosis inducing drug, 3500 cells were placed into each well of a 96-well plate and incubated overnight at 37° C. in a humidified 5% CO2 atmosphere. The following day, the culture medium was removed from each well and replaced with fresh medium containing various concentrations of paclitaxel (0-50 μM) from a 20 mM stock made in DMSO. The maximal concentration of DMSO used in these experiments was 0.25%. The cells were then incubated for 26 h as above. At the end of the paclitaxel treatment period, each well received fresh medium containing 750 nM MITOTRACKER™ Red (Molecular Probes; Eugene, Oreg.) and 3 μg/ml Hoechst 33342 DNA-binding dye (Molecular Probes) and was incubated as above for 20 mm. Each well on the plate was then washed with HBSS and fixed with 3.7% formaldehyde in HBSS for 15 mm at room temperature. The formaldehyde was washed out with HBSS and the cells were permeabilized for 90 s with 0.5% (v/v) Triton X-100, washed with HBSS, incubated with 2 U ml^−1 BODIPY™ FL phallacidin (Molecular Probes) for 30 mm, and washed with HBSS. The wells on the plate were then filled with 200 μl HBSS, sealed, and the plate stored at 4° C. if necessary. The fluorescence signals from plates stored this way were stable for at least two weeks after preparation. As in the nuclear translocation assay, fluorescence reagents can be designed to convert this assay into a live cell high-content screen.
The fluorescence intensity of intracellular MITOTRACKER™ Red, Hoechst 33342, and BODIPY™ FL phallacidin was measured with the cell screening system as described supra. Morphometric data from each pair of images obtained from each well was also obtained to detect each object in the image field (e.g., cells and nuclei), and to calculate its size, shape, and integrated intensity.
A total of 50-250 cells were measured per image field. For each field of cells, the following calculations were performed: (1) The average nuclear area (μm^2) was calculated by dividing the total nuclear area in a field by the number of nuclei detected. (2) The average nuclear perimeter (μm) was calculated by dividing the sum of the perimeters of all nuclei in a field by the number of nuclei detected in that field. Highly convoluted apoptotic nuclei had the largest nuclear perimeter values. (3) The average nuclear brightness was calculated by dividing the integrated intensity of the entire field of nuclei by the number of nuclei in that field. An increase in nuclear brightness was correlated with increased DNA content. (4) The average cellular brightness was calculated by dividing the integrated intensity of an entire field of cells stained with MITOTRACKER™ dye by the number of nuclei in that field. Because the amount of MITOTRACKER™ dye that accumulates within the mitochondria is proportional to the mitochondrial potential, an increase in the average cell brightness is consistent with an increase in mitochondrial potential. (5) The average cellular brightness was also calculated by dividing the integrated intensity of an entire field of cells stained with BODIPY™ FL phallacidin dye by the number of nuclei in that field. […]

[3] = tested on: L929 cells; assay: Apoptosis nuclear morphology, L929 cells; type: cell-based, mouse; details: 30 hours
Method: (§3) Cells were plated into 96-well plates at densities of 3×10^3 to 1×10^4 cells/well. The following day apoptotic inducers were added at indicated concentrations and cells were incubated for indicated time periods (usually 16-30 hours). The next day medium was removed and cells were stained with 5 μg/ml Hoechst (Molecular Probes, Inc.) in fresh medium and incubated for 30 minutes at 37° C. Cells were washed in Hank's Balanced Salt Solution (HBSS) and fixed with 3.7% formaldehyde in HBSS at room temperature. Cells were washed 2×with HBSS at room temperature and the plate was sealed.
(§4) Quantitation of changes in nuclear morphology upon induction of apoptosis was accomplished by (1) measuring the effective size of the nuclear region; and (2) measuring the degree of convolution of the perimeter.

[4] = tested on: BHK cells; assay: Apoptosis mitochondrial mass/potential, BHK cells; type: cell-based; details: 30 hours
Method: as §1, §2

[5] = tested on: MCF-7 cells; assay: Apoptosis nuclear morphology, MCF-7 cells; type: cell-based; details: 30 hours
Method: as §3, §4

CC(=O)O[C@H]1C(=O)[C@@]2(C)[C@H]([C@H](OC(=O)c3ccccc3)[C@]3(O)C[C@H](OC(=O)[C@H](O)[C@@H](NC(=O)c4ccccc4)c4ccccc4)C(C)=C1C3(C)C)[C@]1(OC(C)=O)CO[C@@H]1C[C@@H]2O [paclitaxel]
mitochondrial changes (mass / membrane potential) [1]: consistent increases in mitochondrial mass; also recorded: an increase in mitochondrial mass | sensitivity, each parameter measured ([2]; L-929 cells compared with SNB-19 cells): less sensitive to low concentrations of paclitaxel than were SNB-19 cells | concentration of maximal response in many parameters ([2]; L-929 cells, 26 h): 5 µM | mitochondrial potential ([2]; L-929 cells, any of the concentrations tested (0-50 μM), 26 h): did not show a sharp decrease in mitochondrial potential | nuclear morphology ([2]; L-929 cells, increasing amounts, 26 h): caused nuclei to enlarge and fragment | dose of maximal response relative to SNB-19 cells ([2]; L-929 vs SNB-19 cells): 500 fold | change in nuclear morphology [3]: dose-dependent change in nuclear morphology; also recorded: classic nuclear fragmentation | mitochondrial changes (mass / membrane potential) [4]: consistent increases in mitochondrial mass | change in nuclear morphology [5]: nuclear fragmentation
